As a reminder, the IC50 is the concentration at which inhibition is half-maximal. In general, MIC80 refers to an inhibitory concentration at the 80% level, which refers to growth in some studies and to a panel of isolates in others. Broadly, the MIC is the smallest concentration in the dilution series that meets the test's criterion for growth inhibition. In general, EC50 refers to the midpoint of the concentration-response curve.

Molecules are shown by their SMILES. ≈ marks a conversion by molar mass, not a printed value. Where “and” joins values, the source holds several entries; their conditions need not be identical. Identical values can stand only once.

In one experiment the test system is RS4-11. The experiment in a line: Antiproliferative activity against human RS4-11 cells assessed as cell growth inhibition incubated for 48 hrs by MTT assay. Format: functional, cell-based. To be noted: RS4-11, 48 h.
A further experiment relates to HT-29. The experiment in a line: Antiproliferative activity against human HT-29 cells assessed as cell growth inhibition incubated for 48 hrs by MTT assay. Format: functional, cell-based. The following applies: HT-29, 48 h. In general terms: Tetrazolium assays rely on reduction of a dye to a coloured formazan, in cell work by metabolically active cells.
The subject of the next experiment is Jurkat. Nature of the experiment: Antiproliferative activity against human jurkat cells assessed as cell growth inhibition incubated for 48 hrs by MTT assay. Format: functional, cell-based.
For a further experiment, the system named is MCF7. The experiment in a line: Antiproliferative activity against human MCF7 cells assessed as cell growth inhibition incubated for 48 hrs by MTT assay. Format: functional, cell-based. To be noted: MCF7, 48 h.
Another experiment relates to HeLa. The experiment in a line: Antiproliferative activity against human HeLa cells assessed as cell growth inhibition incubated for 48 hrs by MTT assay. Format: functional, cell-based.
Another experiment relates to Candida albicans. Nature of the experiment: Antifungal activity against Candida albicans Y0109 assessed as fungal growth inhibition. Format: functional.
Experiment [1] relates to Mycobacterium tuberculosis. The experiment in a line: Antimycobacterial activity against Mycobacterium tuberculosis H37Rv measured […] by MABA assay. Format: functional. On the technique in general: Resazurin is reduced to fluorescent resorufin, in cell work by metabolically active cells.
The subject of experiment [2] is Mycobacterium tuberculosis. Nature of the experiment: Potency index, ratio of test compound MIC to Pyrazinamide MIC for antimycobacterial activity against Mycobacterium tuberculosis H37Rv. Format: functional.
Experiment [3] is described as follows: Inhibition of Mycobacterium tuberculosis shikimate dehydrogenase.
The subject of experiment [4] is Mycobacterium tuberculosis. The experiment in a line: Antimycobacterial activity against Mycobacterium tuberculosis H37Rv measured after 8 to 9 days. Format: functional. The following applies: time 8-9 day.
A further experiment concerns DU-145. The experiment in a line: Anticancer activity against human DU-145 cells assessed as cell growth inhibition incubated for 48 hrs by MTT assay. Format: functional, cell-based. The following applies: DU-145, 48 h.
For another experiment, the system named is A549. The experiment in a line: Anticancer activity against human A549 cells assessed as cell growth inhibition incubated for 48 hrs by MTT assay. Format: functional, cell-based. To be noted: A549, 48 h.
For a further experiment, the system named is BT-20. Nature of the experiment: Anticancer activity against human BT-20 cells assessed as cell growth inhibition incubated for 48 hrs by MTT assay. Format: functional, cell-based. The following applies: BT-20, 48 h.
A short description of experiment [5]: Anticancer activity against human SK-MEL-128 cells assessed as cell growth inhibition incubated for 48 hrs by MTT assay. Format: functional, cell-based. To be noted: SK-MEL-128, 48 h.
The test system of a further experiment is Staphylococcus aureus. Nature of the experiment: Antibacterial activity against Staphylococcus aureus assessed as bacterial growth inhibition incubated for 16 hrs. Format: functional.
For experiment [6], the system named is Mycobacterium tuberculosis. Nature of the experiment: Antimycobacterial activity against Mycobacterium tuberculosis H37Rv measured after 21 days. The following applies: 504 h, time 21 day. Format: functional.
Another experiment deals with Plasmodium falciparum. Nature of the experiment: Antimalarial activity against Plasmodium falciparum. Format: functional, organism-based.
Experiment [7] has as its system Xanthomonas oryzae pv. oryzae. The experiment in a line: Antibacterial activity against Xanthomonas oryzae pv. oryzae assessed as bacterial growth inhibition. Format: functional, organism-based.
The test system of experiment [8] is Mycobacterium tuberculosis. The experiment in a line: Antimycobacterial activity against Mycobacterium tuberculosis H37Rv. Format: functional.
The test system of a further experiment is MDA-MB-231. Nature of the experiment: Antiproliferative activity against human MDA-MB-231 cells assessed as cell growth inhibition by MTT assay. Format: functional, cell-based.
Setting [9] is: Plasmodium falciparum, read-out: IC50.

In the case of `COc1cccc(-c2nc(N)n(C(=O)c3cc(OC)c(OC)c(OC)c3)n2)c1`, the IC50 with RS4-11, with HT-29, in the experiment with Jurkat, in the experiment with MCF7 and in the experiment with HeLa was less than 1000 nM each time. Take `CCCCCCCC(=O)OC1CCN(CC(O)(Cn2cncn2)c2ccc(F)cc2F)CC1` (stereo not given): in the experiment with Candida albicans, the MIC80 was found to be 9 nM (≈ 4.18 ng/mL). Regarding `COc1ccc(-n2ncn(Cc3cn(Cc4cc(=O)oc5ccc6ccccc6c45)nn3)c2=O)cc1`, the lowest concentration to inhibit growth in experiment [1] (MIC) was 1.6 µg/mL (≈ 3.33 µM). The Ratio in experiment [2] is reported as 2. `Brc1ccc(OCc2nn3c(-c4ccc(Br)cc4)nnc3s2)cc1`: the IC50 in experiment [3] came out at 14.42 µg/mL (≈ 30.9 µM). Besides, inhibition of growth in experiment [4] (MIC) required 14.4 µg/mL (≈ 30.9 µM). Take `CCCCCCCCCCCC(=O)OC1CCN(CC(O)(Cn2cncn2)c2ccc(F)cc2F)CC1` (stereo not given): in the experiment on Candida albicans, the MIC80 came to 9 nM (≈ 4.69 ng/mL). On to `Nn1c(Cc2ccc(Br)cc2)nn(CC(=O)NNC(=O)c2cc3cc(Cl)cc(Cl)c3oc2=O)c1=O`, for which the IC50 (with DU-145; in the experiment on A549; in the experiment on BT-20; in experiment [5]) was 3.1 µg/mL (≈ 5.32 µM) in each case. Regarding `Cc1ccc(C(=O)NCc2nnc(S)n2/N=C/c2ccc(Cl)cc2)cc1`, the minimal inhibitory concentration (MIC) with Staphylococcus aureus is 3.12 µg/mL (≈ 8.1 µM).

As to `CC(C)(C)C(=O)OC1CCN(CC(O)(Cn2cncn2)c2ccc(F)cc2F)CC1` (stereo not given), the MIC80 in the experiment with Candida albicans turned out to be 9 nM (≈ 3.8 ng/mL).

Consider `CCCC(=O)OC1CCN(CC(O)(Cn2cncn2)c2ccc(F)cc2F)CC1` (stereo not given), for which the MIC80 in the experiment on Candida albicans turned out to be 9 nM (≈ 3.68 ng/mL). `Cc1ccc(C(=O)NCc2nnc(S)n2/N=C/c2ccc([N+](=O)[O-])cc2)cc1`: the MIC in the experiment on Staphylococcus aureus amounted to 3.12 µg/mL (≈ 7.88 µM). In the case of `CCCCCCCCCC(=O)OC1CCN(CC(O)(Cn2cncn2)c2ccc(F)cc2F)CC1` (stereo not given), in the experiment with Candida albicans, the MIC80 is 9 nM (≈ 4.43 ng/mL). Same read-out and setting: for `O=C(OC1CCN(CC(O)(Cn2cncn2)c2ccc(F)cc2F)CC1)C(F)(F)F` (stereo not given) the value was 9 nM (≈ 3.91 ng/mL).

With `C#Cc1nnc2c3ccccc3cnn12`, the MIC in experiment [6] turned out to be 0.5 µg/mL (≈ 2.57 µM). For `CC(=O)OC1CCN(CC(O)(Cn2cncn2)c2ccc(F)cc2F)CC1` (stereo not given), the MIC80 with Candida albicans was determined as 9 nM (≈ 3.42 ng/mL). As for `Cc1ccc(-c2cc(-c3c(C)nn(-c4ccccc4)c3-n3cncn3)n3c(c2)nc2ccccc23)cc1`, the IC50 in the experiment on Plasmodium falciparum (setting [9]) was 0.041 µg/mL (≈ 0.0851 µM). `O=C(CCl)OC1CCN(CC(O)(Cn2cncn2)c2ccc(F)cc2F)CC1` (stereo not given): the MIC80 in the experiment on Candida albicans is 9 nM (≈ 3.73 ng/mL). Consider `O=[N+]([O-])c1ccc(C2=Nn3c(nnc3-c3ccc(Br)cc3)CC2)cc1`, for which the half-maximal inhibitory concentration (IC50) in experiment [3] was found to be 86.39 µg/mL (≈ 217 µM). This compound also displayed a minimal inhibitory concentration (MIC) in experiment [4] of 0.25 µg/mL (≈ 0.628 µM).

`Cc1ccc2c(Cn3cc(Cn4cnn(-c5ccccc5)c4=O)nn3)cc(=O)oc2c1` returned an MIC in experiment [1] of 1.6 µg/mL (≈ 3.86 µM). The Ratio in [2] is on record as 2. With `O=C(CSc1nnc(C2CCN(c3ncnc4ccccc34)CC2)n1-c1ccccc1)Nc1ccccc1[N+](=O)[O-]`, the EC50 in experiment [7] worked out at 34.5 µg/mL (≈ 60.9 µM). Consider `OC1(c2nnc(-c3ccncc3)[nH]2)CCCC1`, for which the lowest concentration to inhibit growth in [8] (MIC) was 0.59 µg/mL (≈ 2.56 µM). Turning to `COc1ccc(/C=N/n2c(S)nnc2CNC(=O)c2ccc(C)cc2)cc1`, the MIC with Staphylococcus aureus turned out to be 3.12 µg/mL (≈ 8.19 µM).

`Cc1ccc(-n2nc(C)n(-n3c(-c4cc5ccccc5oc4=O)cs/c3=N\c3ccccc3)c2=O)cc1`: the IC50 in the experiment with MDA-MB-231 came to 0.16 µg/mL (≈ 0.315 µM).

`CCC(=O)OC1CCN(CC(O)(Cn2cncn2)c2ccc(F)cc2F)CC1` (stereo not given): in the experiment with Candida albicans, the MIC80 was 9 nM (≈ 3.55 ng/mL). `Cc1nn(-c2ccccc2)c(-n2cncn2)c1-c1cc(-c2ccc(F)cc2)cc2nc3ccccc3n12`: the IC50 in the experiment with Plasmodium falciparum and with Plasmodium falciparum (setting [9]) was 0.041 µg/mL (≈ 0.0844 µM) throughout. In the case of `Cc1nn(-c2ccccc2)c(-n2cncn2)c1-c1cc(-c2cc[nH]c2)cc2nc3ccccc3n12`, the IC50 in the experiment with Plasmodium falciparum was 0.092 µg/mL and 0.041 µg/mL. Take `COc1ccc(-c2cc(-c3c(C)nn(-c4ccccc4)c3-n3cncn3)n3c(c2)nc2ccccc23)cc1`: the IC50 with Plasmodium falciparum (setting [9]) amounted to 0.041 µg/mL (≈ 0.0824 µM). `COc1ccc(/N=c2\scc(-c3cc4ccccc4oc3=O)n2-n2c(C)nn(-c3ccc(Br)cc3)c2=O)cc1`: the IC50 in the experiment with MDA-MB-231 is 0.16 µg/mL (≈ 0.266 µM). Take `CCN(CC)c1ccc2cc(C(=O)NNC(=O)Cn3nc(C)n(N)c3=O)c(=O)oc2c1`: the half-inhibitory concentration (IC50) (with DU-145; in the experiment on A549; with BT-20; in experiment [5]) was 3.1 µg/mL (≈ 7.22 µM) in each case. As for `Cc1nn(-c2ccccc2)c(-n2cncn2)c1-c1cc(-c2ccc(O)cc2)cc2nc3ccccc3n12`, the half-maximal inhibitory concentration (IC50) with Plasmodium falciparum turned out to be 0.041 µg/mL (≈ 0.0848 µM); in the experiment with Plasmodium falciparum (setting [9]), 0.054 µg/mL (≈ 0.112 µM). For `CCN(CC)c1ccc2cc(C(=O)NNC(=O)Cn3nc(Cc4ccc(Cl)c(Cl)c4)n(N)c3=O)c(=O)oc2c1`, the IC50 (in the experiment with DU-145; in the experiment with A549; with BT-20; in experiment [5]) was 3.1 µg/mL (≈ 5.4 µM) each time. `CC1CC(C)(C)CC(O)(c2nnc(-c3ccncc3)[nH]2)C1` (stereo not given) came in with an MIC in [8] of 0.59 µg/mL (≈ 2.06 µM).

The values are drawn from ChEMBL document CHEMBL5244255, “An insight on medicinal attributes of 1,2,4-triazoles” (Eur J Med Chem, 2020).
